We go through 85 molecules from a melting point compilation (Tetko et al.; mined from patent text by program, amines drawn as free bases though some values may be those of a salt).

As a reminder, the melting point is the temperature of the solid-liquid transition. The molecule `C#CCCC(=O)N1c2ccccc2C(=O)Nc2cccnc21` came in with a melting point of 179 to 180 °C. Regarding `CCCOC(=O)OC1CSC(Oc2ccc3c(C)cc(=O)oc3c2)C(OC(=O)OCCC)C1OC(=O)OCCC` (stereo not given), the melting point came to 134 °C. As to `CC(C)N1CCN(Cc2ccc3c(c2)-c2[nH]nc(-c4ccsc4)c2C3)CC1`, the melting point lay in the range of 182 to 185 °C. `Fc1ccc2[nH]cc(Cc3ccncc3)c2c1` returned a melting point of 141 to 142 °C. On to `Cc1ccnc2c1C(=O)CC(c1ccco1)C2` (stereo not given), for which the melting point was 70 to 71 °C. `Cc1c(C)c2c(c(C)c1Br)OCC2c1ccc(C(C)C)cc1` (stereo not given) gave a melting point of 56 to 57 °C.

Turning to `O=C(O)CCc1ccc2c(c1)CCc1ccc(C(=O)O)cc1S2`, the melting point was in the range of 233 to 235 °C. In turn, `COc1cc(C(C)O)c([N+](=O)[O-])cc1OC` (stereo not given) showed a melting point of 107 to 108 °C. Turning to `Cc1cc(F)ccc1-c1ccc(S(=O)(=O)N2c3ccccc3CC2C(=O)NCc2ccccc2N)cc1` (stereo not given), the melting point lay within 92 to 96 °C. The molecule `CC(C)(C)OC(=O)NCCCC(=O)NCCC(=O)OCc1ccccc1` had a melting point of 54 to 55 °C. `CCCCCCCCSc1nc(Nc2cc(C)c(O)c(C(C)(C)C)c2)nc(NC2CC(C)(C)NC(C)(C)C2)n1` yielded a melting point of 133 °C. In the case of `Cc1cc(-c2cc3nccnc3[nH]2)cn1C` it was 253 °C; in that of `COc1cc(N(C)c2nccc(-c3ccncc3)n2)cc(OC)c1OC`, 139 °C. For `COc1ccc(-c2nc3nccnc3[nH]2)c(OCC#N)c1`, the melting point lay in the range of 232 to 233 °C. `CCCC(Oc1cccc(-c2noc(C)n2)c1)C(=O)O` (stereo not given) showed a melting point of 98 to 100 °C.

In the case of `O=C(NC(C(=O)O)c1ccsc1)OCc1ccccc1` (stereo not given), the melting point fell in the range of 115 to 117 °C.

`CCOC(=O)c1cc2c(O)c(C(=O)OCC)n(C)c2nc1C(=O)OCC`: the melting point lay in the range of 129 to 130 °C. Molecule `C=C(Cl)CSC1=C(O)CC(C)(C)CC1=O` displayed a melting point of 103 to 106 °C. `CCCc1c(OCCCCCOc2ccc3ccc(OCC(=O)O)cc3c2CCC(=O)O)ccc2c1OCCC2=O` registered a melting point of 175 to 178 °C. In the case of `O=C(CCl)Cc1nc2ccccc2c(=O)n1-c1ccc(Cl)cc1`, the melting point is greater than 275 °C. Take `Cc1cccc(-c2n[nH]cc2-c2ccc(F)c(-c3ccc(N4CCOCC4)nc3)c2)n1`: the melting point was 85 to 87 °C. In the case of `COc1ccc(-c2cc(N3CCCCC3)c(C#N)c3c2-c2ccccc2C3=O)cc1` it was 210 to 212 °C. The molecule `CC(C)(C#N)OC(=O)Nc1ccc(-c2ncn(-c3ccc(OC(F)(F)F)cc3)n2)cc1` registered a melting point of 172 to 175 °C. Turning to `Cc1cnc2c(C#N)c(-c3ccc(S(=O)(=O)NC4(C(F)(F)F)CC4)cn3)n(C3CCCC3)c2c1`, the melting point fell in the range of 249 to 251 °C. Turning to `CCCCCCOc1ccc(-c2ccc(OCCCCCCBr)cc2)cc1`, the melting point lay within 103 to 105 °C. In the case of `COc1cccc(OC)c1C(=O)Nc1nnc(C(C)(C)CSC)s1`, the melting point is 165 to 167 °C. Take `CCOC(=O)C(=O)Nc1sc(-c2ccccc2)cc1[N+](=O)[O-]`: the melting point was 139 to 144 °C. In the case of `CC1(C)CCc2c(N3CCCC3)nc3sc4c(NCCc5c[nH]cn5)ncnc4c3c2C1`, the melting point lay within 192 to 193 °C. `CS(=O)(=O)c1ccc(-c2[nH]c(C(O)(C(F)(F)F)C(F)(F)F)nc2-c2ccccc2)cc1` yielded a melting point of 223 to 225 °C. The molecule `COc1ccc(F)c(C=C2c3ccccc3CCc3ccccc32)c1` gave a melting point of 111 °C.

Consider `CC(=O)Oc1cc(O)c(Cl)cn1`, for which the melting point lay within 270 to 272 °C.

`CC(C)C(NC(=O)c1ccc(C(=O)NCC(=O)O)cc1)C(=O)N1CCCC1C(=O)NC(C(=O)C(F)(F)F)C(C)C` (mixture of isomers) gave a melting point of 99 to 103 °C. As for `O=C(/C=C/c1c[nH]c2ccccc12)c1ccccn1`, the figure is 141 to 145 °C. For the molecule `CN1CCN(Cc2cc(N)cc(C(F)(F)F)c2)CC1`, the melting point fell in the range of 98 to 99 °C. Consider `COC(=O)c1c(Cc2ccc(S(=O)(=O)N3CCN(C)CC3)cc2)c(=O)c2ccccc2n1-c1ccccc1`, for which the melting point was in the range of 210 to 212 °C.

`CC1(C)OC(=C(C#N)C#N)C(C#N)=C1/C=C/c1ccc([N+](=O)[O-])cc1` yielded a melting point of 281 °C. `COc1ccc2nc3c(c(-c4ccc(F)cc4)c2c1)CNC3=O`: the melting point fell in the range of 284 to 286 °C. Molecule `Cc1cc(N2CCN(Cc3ccc(C(F)(F)F)cc3)C2=O)sc1C(=O)NCc1cccnc1` showed a melting point of 102 to 104 °C.

Consider `CC(=NOCc1ccccc1Nc1c(Cl)ccc(C)c1Cl)C(=O)O`, for which the melting point was 166 to 171 °C.

Molecule `Cc1csc(C(O)(c2nc(C)cs2)C(F)(F)F)n1` showed a melting point of 140 to 142 °C. For `Cc1c(C)c2c(c(C)c1NC(=O)CCC(F)(F)F)C(c1ccc(C(C)C)cc1)CO2` (stereo not given), the melting point is 206 to 207 °C.

Molecule `COc1c(NOCc2ccc(C(C)(C)C)cc2)ccnc1C` displayed a melting point of 113 °C. In the case of `[N-]=[N+]=NCCCc1ccc(C(N)=O)s1` it was 85 to 87 °C; in that of `O=[N+]([O-])c1ccc(N2C[C@H]3CN(Cc4ccccc4)C[C@H]3C2)cc1`, 121 to 123 °C. With `CC(C)OCCNC(=O)c1n[nH]cc1NC(=O)c1ccccc1`, the melting point is 121 to 122 °C. In the case of `COc1ccc(-c2cc3ccc(OC)cc3n2C)cc1`, the melting point lay in the range of 163 to 166 °C. In the case of `CCOC(=O)C(C#N)(CCBr)c1cc(OC)c(OC)c(OC)c1` (stereo not given) it was 76 to 77 °C; in that of `Cn1c(=O)c(NC(=O)Nc2ccc(F)cc2F)c(-c2ccccc2Cl)c2cccnc21`, 225 to 226 °C; in that of `CN1c2ccc(-c3cccc4ccccc34)cc2Sc2cc(-c3cccc4ccccc34)ccc21`, 185 to 190 °C.

With `O=c1[nH]cccc1CCCCCCCCCCCCc1ccc[nH]c1=O`, the melting point amounted to 210 °C.

Molecule `CCCCCCCCCCOc1ccc2c(=O)c3cccc(C(=O)O)c3oc2c1CCC(=O)O` had a melting point greater than 210 °C. In turn, `CCOP(=O)(OCC)C(O)[C@H](CC1CCCCC1)NC(=O)[C@H](CC(C)C)NC(=O)[C@H](Cc1ccccc1)NC(=O)OC(C)(C)C` (stereo not given in full) showed a melting point of 173 to 175 °C. In the case of `O=C1C=C(c2cc(F)c(Br)cc2F)CC1`, the melting point lay within 129 to 131 °C. As for `Cc1ccc(N2CCN(c3cc4c(ncc5c4c(=O)c(C(=O)O)cn5C)c(F)c3Cl)CC2)cc1F`, the figure is 360 °C; as for `Cc1ccc(O)c(C)c1[N+](=O)[O-]`, 99 to 101 °C; as for `Cc1cc2c(c(C)c1NC(=O)OC(C)(C)C)CC(C)(C)O2`, 121 to 123 °C. In the case of `COc1ccc(C=CC(=O)O)cc1-c1cc2c(cc1OCc1ccccc1)C(C)(C)CCC2(C)C`, the melting point lay within 200 to 202 °C.

With `CCCCCCCNC(=O)N(C)c1cccc(-c2ccc(CC(Nc3ccccc3C(=O)c3ccccc3)C(=O)O)cc2)c1` (stereo not given), the melting point is 105 °C. As for `C=CCCCCCCCCC(=O)OC1CCC2C3CCC4=CC(=O)CCC4C3CCC12CC` (stereo not given), the figure is 87 to 88 °C.

`CCOCc1nc2c(N)nc(C)c(C)c2n1CCNC(=O)NC1CCCCC1` came in with a melting point of 188 to 190 °C. `C=CCc1cc(C(=O)c2ccc(Cl)c(S(=O)(=O)N=CN(C)C)c2)c(Cl)c(Cl)c1O` showed a melting point of 190 to 193 °C. Turning to `CC12CCC3c4ccc(C(=O)O)cc4CCC3C1CCC2C(=O)C#Cc1ccccc1` (stereo not given), the melting point fell in the range of 174 to 178 °C. In the case of `COc1cc(CC(=O)NC(CC(C)C)c2cc(CC(NC(C)=O)C(=O)O)on2)ccc1NC(=O)Nc1ccccc1C` (stereo not given), the melting point was 123 to 125 °C.

`N#Cc1c(O)csc1N` came in with a melting point of 300 °C. Molecule `COc1ccc(Cn2cc(C)c3ccc(C(=O)c4ccccc4)cc32)cc1` showed a melting point of 146 to 147 °C. As for `CCCCS(=O)(=O)NC(=O)CCc1cc(OC(C)C)nn1Cc1ccc(Cl)cc1Cl`, the figure is 133 to 134 °C; as for `CON=C(c1ccccc1OCc1ccc(Cl)cc1)n1ccnc1`, 92.5 to 93.5 °C; as for `COc1ccc(C(C)OC)c(OC)c1C(O)c1cn(C(c2ccccc2)(c2ccccc2)c2ccccc2)cn1` (stereo not given), 96 to 99 °C.

On to `CCOC(=O)/C=C/c1ccc(OCOC)cc1Oc1ccc(C(F)(F)F)cn1`, for which the melting point lay in the range of 69 to 70 °C. In the case of `CN(C)[C@H]1CC[C@H](NC(=O)OC(C)(C)C)C1` it was 65 to 67 °C; in that of `Cc1ccc(S(=O)(=O)n2cc(C(C)O)c3ccc(C(=O)Nc4c(Cl)cncc4Cl)cc32)cc1` (stereo not given), 206 to 211 °C; in that of `Fc1ccc(Cc2ccc(NC3=NCCN3)cc2)cc1`, 110 to 112 °C. `CCOC(=O)N1CCN(c2ccc(Cl)nn2)CC1` returned a melting point of 124 °C.

`CC(C)(C)NS(=O)(=O)c1cnc(-c2cn(-c3nc(-c4ccc(Cl)cc4)cc(C(F)(F)F)n3)cn2)s1` displayed a melting point of 261 °C. As for `CC1(C)CC(NCC(O)COc2ccc(C(=O)c3ccccc3)c(O)c2)CC(C)(C)N1OC1CCCCC1` (stereo not given), the figure is 118 to 121 °C; as for `Oc1ccc(CN2CC=CCC2)cc1O`, greater than 300 °C; as for `CCOC(=O)/C=C/c1cn(Cc2ccc(OCc3nc(-c4ccco4)oc3C)cc2)nc1OCc1ccc(OCc2nc(-c3ccco3)oc2C)cc1`, 138 to 139 °C. Take `O=C(OC(c1ccccc1)c1ccccc1)C1=CSC2C(=Cc3cn4c(n3)SCC4)C(=O)N12` (stereo not given): the melting point was 160 to 161 °C. As to `CCCCC(Cc1cccnc1)(C(=O)OC(C)(C)C)S(=O)(=O)c1ccc(OC)cc1` (stereo not given), the melting point was 10 °C. In turn, `CN1CCC(=C2c3ccccc3OCc3cc(Br)sc32)CC1` showed a melting point of 101 to 103 °C.

On to `CC1=C(c2ccc(OCC(C)NCC(O)c3cccc(Cl)c3)cc2)CCC(=O)N1` (stereo not given), for which the melting point was in the range of 99 to 104 °C.

The molecule `O=C(O)c1cc(CBr)on1` came in with a melting point of 143 to 148 °C. Turning to `O=C(CC1CCN(CCCn2c(=O)[nH]c3ccccc32)CC1)c1ccc(F)cc1`, the melting point came to 208 °C. Turning to `CC(=NNc1ccc(C2=NNC(=O)CC2C)cc1)c1cc(O)ccc1O` (stereo not given), the melting point was 279 to 284 °C. `c1ccc(-c2nc(COc3ccc(CCCn4ccnc4)cc3)co2)cc1` had a melting point of 111 to 112 °C.
